Test system: TIF-IA
Assay: In vitro transcription assay of TIF-IA purified from treated cells, in nuclear extract from density-arrested FM3A cells
Assay type: biochemical
Protocol: (A) TIF-IA activity in starved and serum-stimulated cells. The indicated amounts of TIF-IA purified from starved NIH3T3 cells (lanes 2-4) or cells that were stimulated by serum in the absence (lanes 5-7) or presence of PD98059 (lanes 8-10) were assayed for their capability to restore transcription of a nuclear extract from density-arrested FM3A cells (lane 1). The amount and purity of TIF-IA were estimated on silver-stained SDS-polyacrylamide gels (data not shown).
FLAG-tagged TIF-IA was purified from untreated (lanes 2-3) or PD98059-treated HEK293T cells (lanes 4-5). The indicated amounts of TIF-IA were assayed for their capability to restore transcription of a nuclear extract from density-arrested FM3A cells (lane 1). The amount of TIF-IA was estimated on silver-stained SDS-polyacrylamide gels (data not shown).
20 and 40 ng of TIF-IA that was immunopurified from untreated (lanes 2, 3) and rapamycin-treated cells (lanes 4, 5) were added to transcription reactions containing nuclear extracts (30 μg) from density-arrested cells.
Nuclear extracts were prepared from exponentially growing (8×10^5 cells/ml), density-arrested or PD98059-treated (CN Bioscience, Bad Soden, Germany) 40 μM, 0.5 hr) or rapamycin-treated FM3A cells (ATCC, Manassas, USA). […] After incubation for 60 min at 30° C., RNA was extracted and analyzed on non-denaturing 5% polyacrylamide gels […]

## COc1cccc(-c2cc(=O)c3ccccc3o2)c1N [PD98059]
NIH3T3 cells stimulated with serum in the presence of PD98059
  transcriptional activity of TIF-IA from treated cells: TIF-IA remained inactive
Unsynchronized cells treated for 30 min with PD98059
  transcriptional activity of TIF-IA from treated cells: transcriptionally inactive
